Data taken from patent US7763615B2, “Ecteinascidin analogs for use as antitumour agents” (priority 2001, dated 2010).
Like-named read-outs stand apart in the source and are kept apart here.

Columns and labels:
Type in all cases: cell-based
[1] = test system: A549; assay: cells; settings: for GI50: read-out: GI50; for IC (TGI): read-out: TGI
Description: (§1) The finality of these assays is to interrupt the growth of a “in vitro” tumor cell culture by means of a continued exhibition of the cells to the sample to be testing.
(§2) A colorimetric type of assay, using sulphorhodamine B (SRB) reaction has been adapted for a quantitative measurement of cell growth and viability [following the technique described by Philip Skehan, et al. (1990), New colorimetric cytotoxicity assay for anticancer drug screening, J. Natl. Cancer Inst., 82:1107-1112]
(§3) This form of the assay employs 96 well cell culture microplates of 9 mm diameter (Faircloth, 1988; Mosmann, 1983). Most of the cell lines are obtained from American Type Culture Collection (ATCC) derived from different human cancer types.
(§4) Cells are maintained in RPMI 1640 10% FBS, supplemented with 0.1 g/l penicillin and 0.1 g/l streptomycin sulphate and then incubated at 37° C., 5% CO2 and 98% humidity. For the experiments, cells were harvested from subconfluent cultures using trypsin and resuspended in fresh medium before plating.
(§5) Cells are seeded in 96 well microtiter plates, at 5×10^3 cells per well in aliquots of 195 μl medium, and they are allowed to attach to the plate surface by growing in drug free medium for 18 hours. Afterward, samples are added in aliquots of 5 μl in a ranging from 10 to 10^−8 μg/ml, dissolved in DMSO/EtOH/PBS (0.5:0.5:99). After 48 hours exposure, the antitumor effect are measured by the SRB methodology: cells are fixed by adding 50 μl of cold 50% (wt/vol) trichloroacetic acid (TCA) and incubating for 60 minutes at 4° C. Plates are washed with deionized water and dried. One hundred μl of SRB solution (0.4% wt/vol in 1% acetic acid) is added to each microtiter well and incubated for 10 minutes at room temperature. Unbound SRB is removed by washing with 1% acetic acid. Plates are air dried and bound stain is solubilized with Tris buffer. Optical densities are read on a automated spectrophotometric plate reader at a single wavelength of 490 nm.
(§6) The values for mean+/− SD of data from triplicate wells are calculated. Some parameters for cellular responses can be calculated: GI=growth inhibition, TGI=total growth inhibition (cytostatic effect) and LC=cell killing (cytotoxic effect).

[2] = test system: HT29; assay: cells
Description: as §1, §2, §3, §4, §5, §6

[3] = test system: H-MEC-1; assay: Inhibition of cells growth by colorimetric assay (SRB), H-MEC-1; settings: Homo sapiens, H-MEC-1, 48 hours exposure, SRB; for GI50 / IC (TGI): HMEC-1, 48 h; for CC50: HMEC-1, read-out: LC50 (the source's name)
Description: as §1, §2, §3, §4, §5, §6

[4] = Homo sapiens, A549, 48 h, A549, 48 hours exposure, SRB
[5] = Homo sapiens, A549, 48 h, A549, 48 hours exposure, SRB, read-out: LC50 (the source's name)
[6] = Homo sapiens, HT-29, 48 h, HT29, 48 hours exposure, SRB, read-out: LC50 (the source's name)
[7] = A549, 48 hours exposure, SRB, read-out: LC50 (the source's name)
[8] = HT29, 48 hours exposure, SRB, read-out: LC50 (the source's name)
[9] = Homo sapiens, HT-29, 48 h, HT29, 48 hours exposure, SRB

| Compound | GI50 [1, 4] | CC50 [1, 5] | IC (TGI) [1, 4] | GI50 ([2]; HT29, 48 hours exposure, SRB) | TGI ([2]; HT29, 48 hours exposure, SRB) | CC50 [2, 6] | TGI ([1]; A549, 48 hours exposure, SRB) | GI50 ([1]; A549, 48 hours exposure, SRB) | CC50 [1, 7] | CC50 [2, 8] | GI50 [2, 9] | IC (TGI) [2, 9] | CC50 ([1]; Homo sapiens, A549, 48 h, read-out: LC50, A549, 48 hours exposure, SRB) | CC50 ([2]; Homo sapiens, HT-29, 48 h, read-out: LC50, HT29, 48 hours exposure, SRB) | GI50 [3] | IC (TGI) [3] | CC50 [3] |
| --- | --- | --- | --- | --- | --- | --- | --- | --- | --- | --- | --- | --- | --- | --- | --- | --- | --- |
| COc1c(C)cc2c(c1O)[C@@H]1C3[C@@H]4SC[C@]5(NC(C)Cc6c5[nH]c5ccc(O)cc65)C(=O)COC[C@@H](c5c6c(c(C)c(OC(C)=O)c54)OCO6)N3[C@@H](C#N)[C@H](C2)N1C (stereo partly drawn) [Compound 12] | 0.00728 µM | 12.6 µM | 0.0835 µM | 0.0137 µM | 1.26E−07 Molar | 12.6 µM |  |  |  |  |  |  |  |  |  |  |  |
| COc1c(C)cc2c(c1O)[C@@H]1C3[C@@H]4SC[C@]5(NC(C)Cc6c5[nH]c5ccc(O)cc65)C(=O)COC[C@@H](c5c6c(c(C)c(OC(C)=O)c54)OCO6)N3[C@@H](C#N)[C@H](C2)N1C (stereo partly drawn) [Compound 13] |  |  |  | 0.333 µM | 1.26E−06 Molar |  | 6.79E−08 Molar | 0.00631 µM | 12.6 µM | 12.6 µM |  |  |  |  |  |  |  |
| COc1c(C)cc2c(c1O)[C@@H]1C3[C@@H]4SC[C@]5(C(=O)COC[C@@H](c6c7c(c(C)c(OC(C)=O)c64)OCO7)N3[C@@H](C#N)[C@H](C2)N1C)c1[nH]c2ccccc2c1CCN5C (stereo partly drawn) [Compound 15] |  |  |  | 0.00416 µM | 1.31E−08 Molar | 13.1 µM | 1.31E−08 Molar | 0.00478 µM | 1.27 µM |  |  |  |  |  |  |  |  |
| COc1c(C)cc2c(c1O)[C@@H]1C3[C@@H]4SC[C@]5(NC(C)Cc6c5[nH]c5ccc(F)cc65)C(=O)COC[C@@H](c5c6c(c(C)c(OC(C)=O)c54)OCO6)N3[C@@H](C#N)[C@H](C2)N1C (stereo partly drawn) [Compound 16] |  | 4.44 µM |  |  | 1.28E−07 Molar | 12.8 µM | 1.28E−07 Molar | 0.0367 µM |  |  | 0.0428 µM |  |  |  |  |  |  |
| COc1c(C)cc2c(c1O)[C@@H]1C3[C@@H]4SC[C@]5(NC(C)Cc6c5[nH]c5ccc(F)cc65)C(=O)COC[C@@H](c5c6c(c(C)c(OC(C)=O)c54)OCO6)N3[C@@H](C#N)[C@H](C2)N1C (stereo partly drawn) [Compound 17] |  |  |  | 0.0222 µM | 1.28E−08 Molar |  | 4.41E−08 Molar | 0.00539 µM | 6.67 µM | 12.8 µM |  |  |  |  |  |  |  |
| COc1c(C)cc2c(c1O)[C@@H]1C3[C@@H]4SC[C@]5(NC(C)Cc6c5[nH]c5ccccc65)C(=O)COC[C@@H](c5c6c(c(C)c(OC(C)=O)c54)OCO6)N3[C@@H](C#N)[C@H](C2)N1C (stereo partly drawn) [Compound 18] |  | 12.9 µM |  |  |  | 12.9 µM | 1.29E−07 Molar | 0.00677 µM |  |  | 0.00562 µM | 0.129 µM |  |  |  |  |  |
| COc1c(C)cc2c(c1O)[C@@H]1C3[C@@H]4SC[C@]5(NC(C)Cc6c5[nH]c5ccccc65)C(=O)COC[C@@H](c5c6c(c(C)c(OC(C)=O)c54)OCO6)N3[C@@H](C#N)[C@H](C2)N1C (stereo partly drawn) [Compound 19] |  |  |  | 0.00445 µM | 1.29E−07 Molar |  | 1.29E−08 Molar | 0.00327 µM | 12.9 µM | 12.9 µM |  |  |  |  |  |  |  |
| CCCC(=O)Oc1c(OC)c(C)cc2c1[C@@H]1C3[C@@H]4SC[C@]5(NCCc6c5[nH]c5ccccc65)C(=O)COC[C@@H](c5c6c(c(C)c(OC(C)=O)c54)OCO6)N3[C@@H](C#N)[C@H](C2)N1C (stereo partly drawn) [Compound 20] | 0.33 µM | 6.77 µM | 1.2 µM |  |  | 12 µM |  |  |  |  | 0.596 µM | 12 µM |  |  |  |  |  |
| COc1c(C)cc2c(c1OC(=O)OC(C)(C)C)[C@@H]1C3[C@@H]4SC[C@]5(NCCc6c5[nH]c5ccccc65)C(=O)COC[C@@H](c5c6c(c(C)c(OC(C)=O)c54)OCO6)N3[C@@H](C#N)[C@H](C2)N1C (stereo partly drawn) [Compound 21] | 0.758 µM | 11.6 µM | 6.99 µM |  |  | 11.6 µM |  |  |  |  | 1.18 µM | 11.6 µM |  |  |  |  |  |
| C=COC(=O)Oc1c(OC)c(C)cc2c1[C@@H]1C3[C@@H]4SC[C@]5(NCCc6c5[nH]c5ccccc65)C(=O)COC[C@@H](c5c6c(c(C)c(OC(C)=O)c54)OCO6)N3[C@@H](C#N)[C@H](C2)N1C (stereo partly drawn) [Compound 22] | 0.0393 µM | 12 µM | 0.12 µM |  |  | 12 µM |  |  |  |  | 0.12 µM | 5.7 µM |  |  |  |  |  |
| C=COC(=O)Oc1c(OC)c(C)cc2c1[C@@H]1C3[C@@H]4SC[C@]5(C(=O)COC[C@@H](c6c7c(c(C)c(OC(C)=O)c64)OCO7)N3[C@@H](C#N)[C@H](C2)N1C)c1[nH]c2ccccc2c1CCN5C(=O)OC=C (stereo partly drawn) [Compound 23] | 0.118 µM |  | 1.26 µM |  |  |  |  |  |  |  | 0.247 µM | 11.1 µM | 11.1 µM | 11.1 µM |  |  |  |
| C=CCOc1c(OC)c(C)cc2c1[C@@H]1C3[C@@H]4SC[C@]5(NCCc6c5[nH]c5ccccc65)C(=O)COC[C@@H](c5c6c(c(C)c(OC(C)=O)c54)OCO6)N3[C@@H](C#N)[C@H](C2)N1C (stereo partly drawn) [Compound 24] | 12.4 µM | 12.4 µM | 12.4 µM |  |  | 12.4 µM |  |  |  |  | 12.4 µM | 12.4 µM |  |  |  |  |  |
| C=CCOc1c(OC)c(C)cc2c1[C@@H]1C3[C@@H]4SC[C@]5(C(=O)COC[C@@H](c6c7c(c(C)c(OC(C)=O)c64)OCO7)N3[C@@H](C#N)[C@H](C2)N1C)c1[nH]c2ccccc2c1CCN5CC=C (stereo partly drawn) [Compound 25] | 11.8 µM | 11.8 µM | 11.8 µM |  |  | 11.8 µM |  |  |  |  | 11.8 µM | 11.8 µM |  |  |  |  |  |
| C=CCOc1c(OC)c(C)cc2c1[C@@H]1C3[C@@H]4SC[C@]5(C(=O)COC[C@@H](c6c7c(c(C)c(OC(C)=O)c64)OCO7)N3[C@@H](O)[C@H](C2)N1C)c1[nH]c2ccccc2c1CCN5CC=C (stereo partly drawn) [Compound 49] | 2.64 µM | 9.37 µM | 4.97 µM |  |  | 12.6 µM |  |  |  |  | 4.5 µM | 12.6 µM |  |  | 1.99 µM | 4.12 µM | 8.54 µM |
| CCCC(=O)Oc1c(C)c2c(c3c1[C@H]1SC[C@]4(NCCc5c4[nH]c4ccccc54)C(=O)COC[C@@H]3N3C1[C@H]1c4c(cc(C)c(OC)c4O)C[C@@H]([C@@H]3C#N)N1C)OCO2 (stereo partly drawn) [Compound 52] | 0.047 µM | 943 µM | 0.126 µM |  |  | 12.6 µM |  |  |  |  | 0.0793 µM | 12.6 µM |  |  | 0.347 µM | 0.00695 µM | 0.0126 µM |
| COc1c(C)cc2c(c1O)[C@@H]1C3[C@@H]4SC[C@]5(NCCc6c5[nH]c5ccccc65)C(=O)COC[C@@H](c5c6c(c(C)c(OC(=O)CCCl)c54)OCO6)N3[C@@H](C#N)[C@H](C2)N1C (stereo partly drawn) [Compound 53] | 0.261 µM | 12.2 µM | 0.784 µM |  |  | 12.3 µM |  |  |  |  | 0.309 µM | 1.23 µM |  |  | 0.132 µM | 12.3 µM | 12.3 µM |
| COc1c(C)cc2c(c1O)[C@@H]1C3[C@@H]4SC[C@]5(NCCc6c5[nH]c5ccccc65)C(=O)COC[C@@H](c5c6c(c(C)c(OC(=O)C(F)(F)F)c54)OCO6)N3[C@@H](C#N)[C@H](C2)N1C (stereo partly drawn) [Compound 56] | 0.0093 µM | 3.79 µM | 0.236 µM |  |  | 12.2 µM |  |  |  |  | 0.0474 µM | 12.2 µM |  |  | 0.00417 µM | 0.00965 µM | 0.378 µM |
| COc1c(C)cc2c(c1OC(=O)OC(C)(C)C)[C@@H]1C3[C@@H]4SC[C@]5(NCCc6c5[nH]c5ccccc65)C(=O)COC[C@@H](c5c6c(c(C)c(OC(=O)OC(C)(C)C)c54)OCO6)N3[C@@H](C#N)[C@H](C2)N1C (stereo partly drawn) [Compound 58] | 0.0891 µM | 10.8 µM | 1.34 µM |  |  | 10.8 µM |  |  |  |  | 0.23 µM | 10.8 µM |  |  | 0.0102 µM | 10.8 µM | 10.8 µM |
| C=COC(=O)Oc1c(C)c2c(c3c1[C@H]1SC[C@]4(NCCc5c4[nH]c4ccccc54)C(=O)COC[C@@H]3N3C1[C@H]1c4c(cc(C)c(OC)c4O)C[C@@H]([C@@H]3C#N)N1C)OCO2 (stereo partly drawn) [Compound 59] | 0.00266 µM | 4.98 µM | 2.26 µM |  |  | 12.6 µM |  |  |  |  | 0.0038 µM | 0.0184 µM |  |  | 0.004 µM | 0.0126 µM | 12.6 µM |
